Tests used:
Assay in all cases: Fractional Inhibitory Concentration Index, checkerboard assay
PAE UFR48 = format: cell-based, P. aeruginosa
Summary of the method: (§1)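 Two-agent checkerboards of 2-fold dilutions in ca-MHB were inoculated at 5.10^5 CFU/mL and incubated 18 h at 35 °C in air, in duplicate; fosfomycin wells also held 25 μg/ml glucose-6-phosphate. FICI calculated as the sum of combination/alone MIC ratios for each drug.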

PAE UFR90 = format: cell-based, P. aeruginosa
Summary of the method: as §1

KPN UFR68 = format: cell-based, K. pneumoniae
Summary of the method: as §1

ECL P99 = format: cell-based, E. cloacae
Summary of the method: as §1

ECO 190317 = format: cell-based, E. coli
Summary of the method: as §1

Molecule NC[C@@H]1CC(=NOCC(N)=O)[C@@H]2CN1C(=O)N2OS(=O)(=O)[O-].O=C(O)C(F)(F)F.[Na+] [Example 4, 2,2,2-trifluroacetate and sodium [(2S,5S)-4-(2-amino-2-oxo-ethoxy)imino-2-(azaniumylmethyl)-7-oxo-1,6-diazabicyclo[3.2.1]octan-6-yl] sulfate] has an FIC index min (PAE UFR48; compound +ATM) of 0.50, an FIC index min (PAE UFR48; compound +FEP) of 0.63 and an FIC index min (PAE UFR48; compound +FOS) of 1.20. For the same molecule, the FIC index min (PAE UFR48; compound +MEM) was 0.63, the FIC index min (PAE UFR48; compound +PIP) was 0.44 and the FIC index min (PAE UFR90; compound +ATM) was 0.53. For the same molecule, the FIC index min (PAE UFR90; compound +FEP) was 0.63, the FIC index min (PAE UFR90; compound +FOS) was 0.63 and the FIC index min (PAE UFR90; compound +MEM) was 1.0. For the same molecule, the FIC index min (PAE UFR90; compound +PIP) was 0.75, the FIC index min (KPN UFR68; compound +ATM) was at most 0.023 and the FIC index min (KPN UFR68; compound +FEP) was at most 0.006. The FIC index min (KPN UFR68; compound +FOS) was at most 0.035, the FIC index min (KPN UFR68; compound +MEM) was at most 0.023 and the FIC index min (KPN UFR68; compound +PIP) was at most 0.063. It also gave an FIC index min (ECL P99; compound +ATM) of 0.63, an FIC index min (ECL P99; compound +FEP) of 0.44 and an FIC index min (ECL P99; compound +FOS) of at most 0.25. The FIC index min (ECL P99; compound +MEM) was 0.44, the FIC index min (ECL P99; compound +PIP) was 0.56 and the FIC index min (ECO 190317; compound +ATM) was 0.57. For the same molecule, the FIC index min (ECO 190317; compound +FEP) was 0.31, the FIC index min (ECO 190317; compound +FOS) was 0.53 and the FIC index min (ECO 190317; compound +MEM) was 0.87. For the same molecule, the FIC index min (ECO 190317; compound +PIP) was at most 0.74.

Reference: patent US20200024278A1, “COMPOSITION COMPRISING ANTIBIOTIC COMPOUND AND AN HETEROCYCLIC COMPOUND AND THEIR USE IN PREVENTING OR TREATING BACTERIAL INFECTIONS” (MUTABILIS, priority 2016, published 2020)
